Experimental data reported in US11572398B2, “GLP-1 derivatives and uses thereof” (Novo Nordisk A/S, priority 2014, dated 2023).
Like-named read-outs stand apart in the source and are kept apart here.

Key:
[1] = in vivo; details: male, Göttingen, minipig, iv
Description: The purpose of this study is to determine the protraction in vivo of the GLP-1 derivatives after i.v. administration to minipigs, i.e. the prolongation of their time in the body and thereby their time of action. This is done in a pharmacokinetic (PK) study, where the terminal half-life of the derivative in question is determined. By terminal half-life is meant the time it takes to halve a certain plasma concentration in the terminal elimination phase.
Male Göttingen minipigs were obtained from Ellegaard Göttingen Minipigs (Dalmose, Denmark) approximately 7-14 months of age and weighing approximately 16-35 kg were used in the studies. The minipigs were housed either individually (pigs with permanent catheters) or in a group and fed restrictedly once or twice daily with SDS minipig diet (Special Diets Services, Essex, UK).
After at least 2 weeks of acclimatisation two permanent central venous catheters were implanted in vena cava caudalis or cranialis in each animal. The animals were allowed 1 week recovery after the surgery, and were then used for repeated pharmacokinetic studies with a suitable wash-out period between successive GLP-1 derivative dosings.
Blood samples (for example 0.8 ml) were collected in EDTA buffer (8 mM) and then centrifuged at 4° C. and 1942G for 10 minutes.
Plasma was pipetted into Micronic tubes on dry ice, and kept at −20° C. until analysed for plasma concentration of the respective GLP-1 compound using LOCI. Individual plasma concentration-time profiles were analyzed by a non-compartmental pharmacokinetic method in Phoenix v. 6.2 (Pharsight Inc., Mountain View, Calif., USA), or other relevant software for PK analysis, and the resulting terminal half-lives (harmonic mean) determined.

[2] = biological target: T1, human GLP-1 receptor (Homo sapiens, UniProt P43220); assay: GLP-1 receptor binding: competitive binding assay (125I-GLP-1, SPA) on isolated membranes at low and high HSA
T1 construct: expressed in transfected cells; host or cells: BHK cells (parent line BHKTS13), clone FCW467-12A; membrane preparation

[3] = biological target: T1, human GLP-1 receptor; assay: In vitro potency: CRE luciferase reporter gene assay in BHK cells expressing the human GLP-1 receptor; assay type: cell-based; details: whole cell reporter gene assay, BHK cells, human GLP-1 receptor; average of at least two replicates; read-out: EC50
How it was run: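 Whole-cell assay in stably transfected BHK cells carrying CRE-driven firefly luciferase, 5×10^3 cells/well, in assay buffer with 2% ovalbumin and 0.2% Pluronic F-68. Compound working solutions were 0.2 μM.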

[4] = high HSA (2.0% final assay concentration), read-out: High HSA IC50
[5] = low HSA (max. 0.001% final assay concentration), read-out: Low HSA IC50

T1 sequence (P43220 24-463): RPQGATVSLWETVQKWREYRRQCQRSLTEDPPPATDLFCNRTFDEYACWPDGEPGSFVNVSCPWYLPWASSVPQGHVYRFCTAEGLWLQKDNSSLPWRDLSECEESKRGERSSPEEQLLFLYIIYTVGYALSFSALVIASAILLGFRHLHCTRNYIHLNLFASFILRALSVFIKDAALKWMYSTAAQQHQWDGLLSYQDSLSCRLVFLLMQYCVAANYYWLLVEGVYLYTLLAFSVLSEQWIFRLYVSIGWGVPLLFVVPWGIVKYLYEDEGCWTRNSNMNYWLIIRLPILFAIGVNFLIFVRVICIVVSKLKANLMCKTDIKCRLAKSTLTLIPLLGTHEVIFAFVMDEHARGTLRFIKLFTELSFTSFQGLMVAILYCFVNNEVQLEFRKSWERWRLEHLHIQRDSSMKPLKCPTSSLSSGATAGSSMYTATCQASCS

Compound	half-life [1] [h]	IC50 [2, 5] [nM]	IC50 [2, 4] [nM]	EC50 [3] [nM]	IC50 ([2]; Low HSA IC50, low HSA (max. 0.001% final assay concentration)) [nM]
CC[C@H](C)[C@H](NC(=O)[C@H](Cc1ccccc1)NC(=O)[C@H](CCC(=O)O)NC(=O)[C@H](CCCNC(=N)N)NC(=O)[C@H](C)NC(=O)[C@H](C)NC(=O)[C@H](CCC(N)=O)NC(=O)[C@H](CCC(=O)O)NC(=O)[C@H](CCC(=O)O)NC(=O)[C@H](CC(C)C)NC(=O)[C@H](Cc1ccc(O)cc1)NC(=O)[C@H](CO)NC(=O)[C@H](CO)NC(=O)[C@@H](NC(=O)[C@H](CC(=O)O)NC(=O)[C@H](CO)NC(=O)[C@@H](NC(=O)[C@H](Cc1ccccc1)NC(=O)[C@@H](NC(=O)CNC(=O)[C@H](CCC(=O)O)NC(=O)C(C)(C)NC(=O)[C@@H](N)Cc1c[nH]cn1)[C@@H](C)O)[C@@H](C)O)C(C)C)C(=O)N[C@@H](C)C(=O)N[C@@H](Cc1c[nH]c2ccccc12)C(=O)N[C@@H](CC(C)C)C(=O)N[C@H](C(=O)N[C@@H](CCCNC(=N)N)C(=O)NCC(=O)N[C@@H](CCCNC(=N)N)C(=O)N[C@@H](CCCCNC(=O)CN(CCCNC(=O)COCCOCCNC(=O)COCCOCCNC(=O)COCCOCCNC(=O)COCCOCCNC(=O)COCCOCCNC(=O)[C@@H](N)CCCCNC(=O)[C@@H](N)CCCCNC(=O)CCCCCCCCCCCCCCCCCCC(=O)O)CCCNC(=O)COCCOCCNC(=O)COCCOCCNC(=O)COCCOCCNC(=O)COCCOCCNC(=O)COCCOCCNC(=O)[C@@H](N)CCCCNC(=O)[C@@H](N)CCCCNC(=O)CCCCCCCCCCCCCCCCCCC(=O)O)C(=O)O)C(C)C [Example 1, N{Epsilon-37}-[2-[bis[3-[[2-[2-[2-[[2-[2-[2-[[2-[2-[2-[[2-[2-[2-[[2-[2-[2-[[(2S)-2-amino-6-[[(2S)-2-amino-6-(19-carboxynonadecanoylamino)hexanoyl]amino]hexanoyl]amino]ethoxy]ethoxy]acetyl]amino]ethoxy]ethoxy]acetyl]amino]ethoxy]ethoxy]acetyl]amino]ethoxy]ethoxy]acetyl]amino]ethoxy]ethoxy]acetyl]amino]propyl]amino]acetyl]-[Ab8,Glu22,Arg26,Arg34,Lys37]-GLP-1-(7-37)-peptide]	130				
CC[C@H](C)[C@H](NC(=O)[C@H](Cc1ccccc1)NC(=O)[C@H](CCC(=O)O)NC(=O)[C@H](CCCNC(=N)N)NC(=O)[C@H](C)NC(=O)[C@H](C)NC(=O)[C@H](CCC(N)=O)NC(=O)[C@H](CCC(=O)O)NC(=O)[C@H](CCC(=O)O)NC(=O)[C@H](CC(C)C)NC(=O)[C@H](Cc1ccc(O)cc1)NC(=O)[C@H](CO)NC(=O)[C@H](CO)NC(=O)[C@@H](NC(=O)[C@H](CC(=O)O)NC(=O)[C@H](CO)NC(=O)[C@@H](NC(=O)[C@H](Cc1ccccc1)NC(=O)[C@@H](NC(=O)CNC(=O)[C@H](CCC(=O)O)NC(=O)C(C)(C)NC(=O)[C@@H](N)Cc1c[nH]cn1)[C@@H](C)O)[C@@H](C)O)C(C)C)C(=O)N[C@@H](C)C(=O)N[C@@H](Cc1c[nH]c2ccccc12)C(=O)N[C@@H](CC(C)C)C(=O)N[C@H](C(=O)N[C@@H](CCCNC(=N)N)C(=O)NCC(=O)N[C@@H](CCCNC(=N)N)C(=O)N[C@@H](CCCCNC(=O)COCCOCCNC(=O)COCCOCCNC(=O)COCCOCCNC(=O)COCCOCCNC(=O)COCCOCCNC(=O)COCCOCCNC(=O)CN(CCCNC(=O)[C@H](CO)NC(=O)CC[C@H](NC(=O)[C@H]1CC[C@H](CNC(=O)CCCCCCCCCCCCCCCCCCC(=O)O)CC1)C(=O)O)CCCNC(=O)[C@H](CO)NC(=O)CC[C@H](NC(=O)[C@H]1CC[C@H](CNC(=O)CCCCCCCCCCCCCCCCCCC(=O)O)CC1)C(=O)O)C(=O)O)C(C)C [Example 25]			41	0.03	0.91

Continued, in another order:

half-life [1] [h]	IC50 [2, 5] [nM]	Compound	IC50 [2, 4] [nM]	EC50 [3] [nM]	IC50 ([2]; Low HSA IC50, low HSA (max. 0.001% final assay concentration)) [nM]
113	0.19	CC[C@H](C)[C@H](NC(=O)[C@H](Cc1ccccc1)NC(=O)[C@H](CCC(=O)O)NC(=O)[C@H](CCCNC(=N)N)NC(=O)[C@H](C)NC(=O)[C@H](C)NC(=O)[C@H](CCC(N)=O)NC(=O)[C@H](CCC(=O)O)NC(=O)[C@H](CCC(=O)O)NC(=O)[C@H](CC(C)C)NC(=O)[C@H](Cc1ccc(O)cc1)NC(=O)[C@H](CO)NC(=O)[C@H](CO)NC(=O)[C@@H](NC(=O)[C@H](CC(=O)O)NC(=O)[C@H](CO)NC(=O)[C@@H](NC(=O)[C@H](Cc1ccccc1)NC(=O)[C@@H](NC(=O)CNC(=O)[C@H](CCC(=O)O)NC(=O)C(C)(C)NC(=O)[C@@H](N)Cc1c[nH]cn1)[C@@H](C)O)[C@@H](C)O)C(C)C)C(=O)N[C@@H](C)C(=O)N[C@@H](Cc1c[nH]c2ccccc12)C(=O)N[C@@H](CC(C)C)C(=O)N[C@H](C(=O)N[C@@H](CCCNC(=N)N)C(=O)NCC(=O)N[C@@H](CCCNC(=N)N)C(=O)N[C@@H](CCCCNC(=O)CN(CCCNC(=O)COCCOCCNC(=O)COCCOCCNC(=O)COCCOCCNC(=O)COCCOCCNC(=O)[C@@H](N)CCCCNC(=O)[C@@H](N)CCCCNC(=O)CCCCCCCCCCCCCCCCCCC(=O)O)CCCNC(=O)COCCOCCNC(=O)COCCOCCNC(=O)COCCOCCNC(=O)COCCOCCNC(=O)[C@@H](N)CCCCNC(=O)[C@@H](N)CCCCNC(=O)CCCCCCCCCCCCCCCCCCC(=O)O)C(=O)O)C(C)C [Example 2, N{Epsilon-37}-[2-[bis[3-[[2-[2-[2-[[2-[2-[2-[[2-[2-[2-[[2-[2-[2-[[(2S)-2-amino-6-[[(2S)-2-amino-6-(19-carboxynonadecanoylamino)hexanoyl]amino]hexanoyl]amino]ethoxy]ethoxy]acetyl]amino]ethoxy]ethoxy]acetyl]amino]ethoxy]ethoxy]acetyl]amino]ethoxy]ethoxy]acetyl]amino]propyl]amino]acetyl]-[Aib8,Glu22,Arg26,Arg34,Lys37]-GLP-1-(7-37)-peptide]	11		
243	0.13	CC[C@H](C)[C@H](NC(=O)[C@H](Cc1ccccc1)NC(=O)[C@H](CCC(=O)O)NC(=O)[C@H](CCCNC(=N)N)NC(=O)[C@H](C)NC(=O)[C@H](C)NC(=O)[C@H](CCC(N)=O)NC(=O)[C@H](CCC(=O)O)NC(=O)[C@H](CCC(=O)O)NC(=O)[C@H](CC(C)C)NC(=O)[C@H](Cc1ccc(O)cc1)NC(=O)[C@H](CO)NC(=O)[C@H](CO)NC(=O)[C@@H](NC(=O)[C@H](CC(=O)O)NC(=O)[C@H](CO)NC(=O)[C@@H](NC(=O)[C@H](Cc1ccccc1)NC(=O)[C@@H](NC(=O)CNC(=O)[C@H](CCC(=O)O)NC(=O)C(C)(C)NC(=O)CCc1cnc[nH]1)[C@@H](C)O)[C@@H](C)O)C(C)C)C(=O)N[C@@H](C)C(=O)N[C@@H](Cc1c[nH]c2ccccc12)C(=O)N[C@@H](CC(C)C)C(=O)N[C@H](C(=O)N[C@@H](CCCNC(=N)N)C(=O)NCC(=O)N[C@@H](CCCNC(=N)N)C(=O)N[C@@H](CCCCNC(=O)CN(CCCNC(=O)COCCOCCNC(=O)COCCOCCNC(=O)COCCOCCNC(=O)COCCOCCNC(=O)[C@@H](N)CCCCNC(=O)[C@@H](N)CCCCNC(=O)CCCCCCCCCCCCCCCCCCC(=O)O)CCCNC(=O)COCCOCCNC(=O)COCCOCCNC(=O)COCCOCCNC(=O)COCCOCCNC(=O)[C@@H](N)CCCCNC(=O)[C@@H](N)CCCCNC(=O)CCCCCCCCCCCCCCCCCCC(=O)O)C(=O)O)C(C)C [Example 4]			
122		CC[C@H](C)[C@H](NC(=O)[C@H](Cc1ccccc1)NC(=O)[C@H](CCC(=O)O)NC(=O)[C@H](CCCNC(=N)N)NC(=O)[C@H](C)NC(=O)[C@H](C)NC(=O)[C@H](CCC(N)=O)NC(=O)[C@H](CCC(=O)O)NC(=O)[C@H](CCC(=O)O)NC(=O)[C@H](CC(C)C)NC(=O)[C@H](Cc1ccc(O)cc1)NC(=O)[C@H](CO)NC(=O)[C@H](CO)NC(=O)[C@@H](NC(=O)[C@H](CC(=O)O)NC(=O)[C@H](CO)NC(=O)[C@@H](NC(=O)[C@H](Cc1ccccc1)NC(=O)[C@@H](NC(=O)CNC(=O)[C@H](CCC(=O)O)NC(=O)C(C)(C)NC(=O)[C@@H](N)Cc1c[nH]cn1)[C@@H](C)O)[C@@H](C)O)C(C)C)C(=O)N[C@@H](C)C(=O)N[C@@H](Cc1c[nH]c2ccccc12)C(=O)N[C@@H](CC(C)C)C(=O)N[C@H](C(=O)N[C@@H](CCCNC(=N)N)C(=O)NCC(=O)N[C@@H](CCCNC(=N)N)C(=O)N[C@@H](CCCCNC(=O)CN(CCCNC(=O)CCOCCOCCOCCOCCNC(=O)CCOCCOCCOCCOCCNC(=O)CCOCCOCCOCCOCCNC(=O)[C@@H](N)CCCCNC(=O)[C@@H](N)CCCCNC(=O)CCCCCCCCCCCCCCCCCCC(=O)O)CCCNC(=O)CCOCCOCCOCCOCCNC(=O)CCOCCOCCOCCOCCNC(=O)CCOCCOCCOCCOCCNC(=O)[C@@H](N)CCCCNC(=O)[C@@H](N)CCCCNC(=O)CCCCCCCCCCCCCCCCCCC(=O)O)C(=O)O)C(C)C [Example 5, N{Epsilon-37}-[2-[bis[3-[3-[2-[2-[2-[2-[3-[2-[2-[2-[2-[3-[2-[2-[2-[2-[[(2S)-2-amino-6-[[(2S)-2-amino-6-(19-carboxynonadecanoylamino)hexanoyl]amino]hexanoyl]amino]ethoxy]ethoxy]ethoxy]ethoxy]propanoylamino]ethoxy]ethoxy]ethoxy]ethoxy]propanoylamino]ethoxy]ethoxy]ethoxy]ethoxy]propanoylamino]propyl]amino]acetyl]-[Aib8,Glu22,Arg26,Arg34,Lys37]-GLP-1-(7-37)-peptide]			
